# Test system: not listed separately
# Assay: Liver microsomal stability assay
# Assay type: in vitro ADME
# Conditions: human liver microsomes, 0.5 mg/mL protein, 37° C.
# Method: The in vitro stabilities of compounds of interest were determined for various species using pooled male and female human, pooled male Sprague-Dawley rat, pooled male Cynomolgus monkey, and pooled male Beagle dog liver microsomes at microsomal protein concentrations of 0.5 mg/mL. Incubations were carried out in a potassium phosphate buffer (50 mM). The NADPH-generating system was composed of NADP+ (1 mM), magnesium chloride (3 mM), EDTA (1 mM), glucose-6-phosphate (5 mM) and glucose-6-phosphate dehydrogenase (1 Unit/mL) for all experiments. Compounds of interest in DMSO were added to achieve a final incubation concentration of […] (final DMSO content was 0.1% v/v and final acetonitrile content was 0.9%). The final incubation volume was 400 μL. Incubations were conducted at 37° C. for 0, 5, 10, 20, 40 and 60 minutes in a shaking water bath and terminated by removing 50 µL of incubation mixture and adding to 100 μL of ice cold acetonitrile containing internal standard. Following precipitation by centrifugation at 3500 rpm and 4° C. for 30 minutes, compounds of interest and internal standard were analyzed in the resultant supernatant using a multiple reaction monitoring (MRM) LC-MS/MS method. MS conditions were optimized for each analyte.
# The following Table (Table D) illustrates human liver microsomal stability of exemplary compounds.
row,HLM t1/2 [h],SMILES
1,1.65,"COc1cc(C#N)cc2[nH]c(-c3c(N)ncc(-c4cc(F)cc(F)c4)c3N3CC[C@@H]4NCCO[C@H]4C3)nc12 [Compound 3-18, 2-{4-[(4αS,8αS)-octahydro-1H-pyrido[3,4-b][1,4]oxazin-6-yl]-2-amino-5-(3,5-difluorophenyl)pyridin-3-yl}-4-methoxy-1H-1,3-benzodiazole-6-carbonitrile]"

# Target: hSSTR4 (Homo sapiens (Human), UniProt P31391)
# Sequence (P31391 whole entry): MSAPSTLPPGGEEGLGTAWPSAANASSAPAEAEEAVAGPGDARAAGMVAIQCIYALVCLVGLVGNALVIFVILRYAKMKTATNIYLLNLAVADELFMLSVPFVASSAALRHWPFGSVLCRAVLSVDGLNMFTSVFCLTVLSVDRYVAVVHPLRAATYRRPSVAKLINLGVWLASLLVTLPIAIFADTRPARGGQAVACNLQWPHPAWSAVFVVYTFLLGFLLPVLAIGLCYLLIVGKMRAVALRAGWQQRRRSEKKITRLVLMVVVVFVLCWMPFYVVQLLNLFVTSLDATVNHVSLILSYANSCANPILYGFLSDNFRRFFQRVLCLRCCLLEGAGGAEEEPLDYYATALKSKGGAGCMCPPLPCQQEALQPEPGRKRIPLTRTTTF
# Assay: selectivity for inhibition of cAMP via hSSTR2 vs. hSSTR4
# Assay type: cell-based
# Conditions: Table B
# From the text: General overview: All five SSTR subtypes are Gi coupled G-protein coupled receptors (GPCRs) that lead to decreases in intracellular cyclic AMP (cAMP) when activated by an agonist. Therefore, measurement of intracellular cAMP levels can be used to assess whether compounds of the invention are agonists of SSTR subtypes (John Kelly, Troy Stevens, W. Joseph Thompson, and Roland Seifert, Current Protocols in Pharmacology, 2005, 2.2.1-2.2). One example of an intracellular cAMP assay is described below.
# Four days prior to the assay, 5,000 Chinese hamster ovary cells (CHO-K1, ATCC #CCL-61) stably expressing the human somatostatin receptor subtype 2 are plated in each well of a 96-well tissue culture-treated plate in Ham's F12 growth media (ThermoFisher #10-080-CM) supplemented with 10% donor bovine serum (Gemini Bio-Products #100-506), 100 U/mL penicillin; 100 ug/mL streptomycin; 2 mM L-glutamine (Gemini Bio-Products #400-110) and 0.2 mg/mL hygromycin B (GoldBio #31282-04-9). The cells are cultured at 37° C., 5% CO2 and 95% humidity. On the day of the assay, the media is aspirated and the cells are treated with 50 μL of 1.6 μM NKH477 (Sigma #N3290) plus various dilutions of compounds of the invention in assay buffer [1× Hank's Balanced Salt Solution (ThermoFisher #SH3058802), 0.5 mM HEPES pH 7.4, 0.1% bovine serum albumin, 0.2 mM 3-Isobutyl-1-methylxanthine (IBMX, VWR #200002-790)]. The cells are incubated for 20 minutes at 37° C. (the final concentration of the compounds of the invention are typically 0-10,000 nM). The cells are treated with 50 μL of lysis buffer (HRTF cAMP kit, Cisbio). The lysate is transferred to 384-well plates and cAMP detection and visualization antibodies are added and incubated for 1-24 hours at room temperature. The time-resolved fluorescent signal is read with a Tecan M1000Pro multiplate reader. The intracellular cAMP concentrations are calculated by regression to a standard curve and are plotted vs. the concentration of the compounds of the invention and the EC50 of the compounds are calculated using standard methods. All data manipulations are in GraphPad Prism v6.
row,hSST4/hSST2 (ratio),SMILES
1,d (d = between 1 and 2.5),"COC(=O)c1ncc(-c2cc(C)cc(F)c2)c(N2CCC(N)CC2)c1-c1nc2cc(F)cc(OC)c2[nH]1 [Compound 2-1, methyl 4-(4-aminopiperidin-1-yl)-3-(6-fluoro-4-methoxy-1H-1,3-benzodiazol-2-yl)-5-(3-fluoro-5-methylphenyl)pyridine-2-carboxylate]"
2,b (b = between 15 and 50),"COc1cc(F)cc2nc(-c3c(C(N)=O)ncc(-c4cc(C)cc(F)c4)c3N3CCC(N)CC3)[nH]c12 [Compound 2-3, 4-(4-aminopiperidin-1-yl)-3-(6-fluoro-4-methoxy-1H-1,3-benzodiazol-2-yl)-5-(3-fluoro-5-methylphenyl)pyridine-2-carboxamide]"
3,e (e = between 1 and 0.5),"COc1cc(F)cc2nc(-c3c(C#N)ncc(-c4cc(C)cc(F)c4)c3N3CCC(N)CC3)[nH]c12 [Compound 2-2, 4-(4-aminopiperidin-1-yl)-3-(6-fluoro-4-methoxy-1H-1,3-benzodiazol-2-yl)-5-(3-fluoro-5-methylphenyl)pyridine-2-carbonitrile]"
4,a (a = above 50),"COc1cc(C#N)cc2[nH]c(-c3c(N)ncc(-c4cc(C)cc(F)c4)c3N3CCC(N)CC3)nc12 [Compound 1-1, 2-[2-amino-4-(4-aminopiperidin-1-yl)-5-(3-fluoro-5-methylphenyl)pyridin-3-yl]-4-methoxy-1H-1,3-benzodiazole-6-carbonitrile]"

# Same assay, conditions: Table C
row,SMILES,hSST4/hSST2 (ratio)
1,"CNc1ncc(-c2cccc(F)c2)c(N2CC[C@@H]3NCCO[C@H]3C2)c1-c1nc2c(OC)cc(C#N)cc2[nH]1 [Compound 3-12, 2-[4-[(4αS,8αS)-octahydro-1H-pyrido[3,4-b][1,4]oxazin-6-yl]-5-(3-fluorophenyl)-2-(methylamino)pyridin-3-yl]-4-methoxy-1H-1,3-benzodiazole-6-carbonitrile]",a (a = above 50)
2,"CNc1ncc(-c2cccc(F)c2)c(N2CC[C@@H]3NCCO[C@H]3C2)c1-c1nc2c(OC)cc(F)cc2[nH]1 [Compound 3-10, 4-[(4αS,8αS)-octahydro-1H-pyrido[3,4-b][1,4]oxazin-6-yl]-3-(6-fluoro-4-methoxy-1H-1,3-benzodiazol-2-yl)-5-(3-fluorophenyl)-N-methylpyridin-2-amine]",a (a = above 50)

# Now from value to compound:
row,hSST4/hSST2 (ratio),SMILES
1,c (c = between 2.5 and 15),"Nc1ncc(-c2cccc(F)c2)c(N2CC[C@@H]3NCCO[C@H]3C2)c1-c1nc2c(F)cc(F)cc2[nH]1 [Compound 3-3, 4-[(4αS,8αS)-octahydro-1H-pyrido[3,4-b][1,4]oxazin-6-yl]-3-(4,6-difluoro-1H-1,3-benzodiazol-2-yl)-5-(3-fluorophenyl)pyridin-2-amine]"
2,c (c = between 2.5 and 15),"COc1cc(F)cc2[nH]c(-c3c(N)ncc(-c4cc(F)cc(Cl)c4)c3N3CC[C@@H]4OCCN[C@H]4C3)nc12 [Compound 3-17, 4-[(4αS,8αS)-octahydro-1H-pyrido[3,4-b][1,4]oxazin-6-yl]-5-(3-chloro-5-fluorophenyl)-3-(6-fluoro-4-methoxy-1H-1,3-benzodiazol-2-yl)pyridin-2-amine]"
3,b (b = between 15 and 50),"COc1cc(C#N)cc2[nH]c(-c3c(N)ncc(-c4cc(F)cc(F)c4)c3N3CC[C@@H]4NCCO[C@H]4C3)nc12 [Compound 3-18, 2-{4-[(4αS,8αS)-octahydro-1H-pyrido[3,4-b][1,4]oxazin-6-yl]-2-amino-5-(3,5-difluorophenyl)pyridin-3-yl}-4-methoxy-1H-1,3-benzodiazole-6-carbonitrile]"
4,a (a = above 50),"CNc1ncc(-c2cc(F)cc(Cl)c2)c(N2CC[C@@H]3NCCO[C@H]3C2)c1-c1nc2c(OC)cc(F)cc2[nH]1 [Compound 3-13, 4-[(4αS,8αS)-octahydro-1H-pyrido[3,4-b][1,4]oxazin-6-yl]-5-(3-chloro-5-fluorophenyl)-3-(6-fluoro-4-methoxy-1H-1,3-benzodiazol-2-yl)-N-methylpyridin-2-amine]"
5,c (c = between 2.5 and 15),"COc1cc(F)cc2[nH]c(-c3c(N)ncc(-c4cccc(F)c4)c3N3CC[C@@H]4NCCO[C@H]4C3)nc12 [Compound 3-9, 4-[(4αS,8αS)-octahydro-1H-pyrido[3,4-b][1,4]oxazin-6-yl]-3-(6-fluoro-4-methoxy-1H-1,3-benzodiazol-2-yl)-5-(3-fluorophenyl)pyridin-2-amine]"
6,b (b = between 15 and 50),"N#Cc1cc(F)c2nc(-c3c(N)ncc(-c4cc(F)cc(F)c4)c3N3CC[C@@H]4OCCN[C@H]4C3)[nH]c2c1 [Compound 3-19, 2-{4-[(4αS,8αS)-octahydro-1H-pyrido[3,4-b][1,4]oxazin-6-yl]-2-amino-5-(3,5-difluorophenyl)pyridin-3-yl}-4-fluoro-1H-1,3-benzodiazole-6-carbonitrile]"
7,a (a = above 50),"COc1cc(C#N)cc2[nH]c(-c3c(N)ncc(-c4cccc(F)c4)c3N3CC[C@@H]4NCCO[C@H]4C3)nc12 [Compound 3-11, 2-{4-[(4αS,8αS)-octahydro-1H-pyrido[3,4-b][1,4]oxazin-6-yl]-2-amino-5-(3-fluorophenyl)pyridin-3-yl}-4-methoxy-1H-1,3-benzodiazole-6-carbonitrile]"

# From US11186590B2, “Somatostatin modulators and uses thereof” (CRINETICS PHARMACEUTICALS, INC., priority 2018, dated 2021)
